Results: publication PMC9581852, “Organic Cation Transporter-Mediated Accumulation of Quinolinium Salts in the LV Myocardium of Rodents” (Molecular Imaging and Biology, 2022)
Blank lines part the entries; values can stand above or below the molecule they belong to.

What was measured:
Format in all cases: cell-based
[1] = molecular target: T1, hOCT3 (organic cation transporter 3) (Homo sapiens, UniProt O75751); assay: radioligand saturation binding/uptake in intact HEK293-hOCT3 cells, empty-vector cells as non-specific binding
T1 construct: gene SLC22A3
T1 sequence (O75751 1-556): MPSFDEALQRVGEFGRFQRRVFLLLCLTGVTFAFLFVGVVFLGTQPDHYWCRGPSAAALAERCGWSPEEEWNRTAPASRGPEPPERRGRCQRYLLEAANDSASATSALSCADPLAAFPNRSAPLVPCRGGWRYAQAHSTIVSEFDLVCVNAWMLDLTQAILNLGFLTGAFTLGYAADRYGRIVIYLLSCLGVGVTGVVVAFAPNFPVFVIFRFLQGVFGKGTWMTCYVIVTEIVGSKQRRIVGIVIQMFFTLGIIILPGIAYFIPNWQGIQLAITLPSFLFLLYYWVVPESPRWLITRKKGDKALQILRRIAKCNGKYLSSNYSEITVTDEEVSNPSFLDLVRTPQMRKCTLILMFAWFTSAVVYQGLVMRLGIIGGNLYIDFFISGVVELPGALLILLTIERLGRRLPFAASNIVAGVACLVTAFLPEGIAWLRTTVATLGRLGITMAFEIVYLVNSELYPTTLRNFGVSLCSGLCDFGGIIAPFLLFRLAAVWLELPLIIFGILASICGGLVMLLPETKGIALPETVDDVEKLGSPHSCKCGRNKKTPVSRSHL

[2] = molecular target: T1, hOCT3 (organic cation transporter 3); assay: inhibition of […]FEtQ uptake in HEK293 cells stably expressing hOCT3
[3] = molecular target: T2, hOCT2 (organic cation transporter 2) (Homo sapiens, UniProt O15244); assay: in vivo PET/CT blocking of […]FEtQ uptake in HEK-hOCT2 xenografts in mice
T2 construct: gene SLC22A2
T2 sequence (O15244 1-555): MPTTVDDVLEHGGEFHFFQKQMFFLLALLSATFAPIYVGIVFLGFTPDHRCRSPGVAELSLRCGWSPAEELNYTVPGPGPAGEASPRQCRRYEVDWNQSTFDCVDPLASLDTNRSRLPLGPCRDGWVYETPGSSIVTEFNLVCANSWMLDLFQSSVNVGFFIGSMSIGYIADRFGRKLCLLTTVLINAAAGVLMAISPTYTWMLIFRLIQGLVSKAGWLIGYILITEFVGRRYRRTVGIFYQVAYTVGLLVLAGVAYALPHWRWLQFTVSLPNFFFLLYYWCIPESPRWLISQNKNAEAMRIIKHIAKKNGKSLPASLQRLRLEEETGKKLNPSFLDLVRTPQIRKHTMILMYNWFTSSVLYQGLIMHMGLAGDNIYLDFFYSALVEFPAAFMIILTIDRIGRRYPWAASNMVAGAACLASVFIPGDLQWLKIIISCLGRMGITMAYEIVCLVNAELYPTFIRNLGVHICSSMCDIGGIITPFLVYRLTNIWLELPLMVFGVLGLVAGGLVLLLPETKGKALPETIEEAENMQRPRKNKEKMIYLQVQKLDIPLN

Kd [1]: 214 ± 114 µM
SMILES: FCC[n+]1cccc2ccccc21 [[18F]FEtQ]

SMILES: C[C@]12C[C@H](O)[C@H]3[C@@H](CCC4=CC(=O)CC[C@@]43C)[C@@H]1CC[C@@H]2C(=O)CO [corticosterone]
IC50 [2]: 0.05 to 0.5 µM

SMILES: CCN1/C(=C/c2ccc3ccccc3[n+]2CC)C=Cc2ccccc21 [decynium 22]
% lower peak tumor uptake at 0.075 mg/kg [3]: 40 % lower peak tumor uptake at 0.075 mg/kg
